“Also recorded” adds a separate entry of the source. Values belong to the molecule of their own block, whether it stands above or below them. Starred links: 1 amine or outer side, 2 acyl side, 3 side chain; linkers in the order of their positions; H or OH if unused. Positions of bridges follow the written chain, without caps; N, C: chain ends. Non-standard residues stand in square brackets, D forms with d. Residues, ends and D or L forms follow the SMILES beside them. *: point of attachment. Phenylacetyl(3,4,5-triOMe) = COc1cc(CC(=O)*)cc(OC)c1OC; Biotin = O=C1N[C@H]2[C@H](CS[C@H]2CCCCC(=O)*)N1; Benzoyl(4-SO2NH2) = NS(=O)(=O)c1ccc(C(=O)*)cc1; Tyr(3-Cl) = N[C@@H](Cc1ccc(O)c(Cl)c1)C(=O)O; X1 = O=C([C@H]1CC[C@@H](N[*:1])C1)[*:2]; oXylylene = c1ccc(C[*:2])c(C[*:1])c1; εLys = N[C@@H](CCCCN[*:1])C(=O)[*:2]
Assays:
CAIX = biological target: T1, CAIX (Homo sapiens, UniProt Q16790); experiment: BLI direct binding assay against CAIX; conditions: biotinylated hit immobilized on streptavidin sensor, CAIX in solution; curves did not reach saturation; read-out: kinetic KD (BLI)
T1 construct: Anhydrase IX (38-414), His,Avitag (CA9H82E3); His; Avitag (biotinylated); purchased ACROBiosystems CA9H82E3
Experimental: Biolayer interferometry (BLI) assays were performed in 96-well plates (GreinerBio-One, polypropylene, flat-bottom, chimney well) using an Octet R4 system (SATORIUS). Wells were filled with 200 μL of kinetic buffer, compound solution or protein solution, purified compounds. Proteins were dissolved in the appropriate kinetic buffer specific for each target (CAIX: 1× PBS, 0.02% Tween-20, 1 mg/mL BSA [0.1% w/v]; WDR5: 20 mM Tris, 500 mM NaCl, pH 8.0, 0.02% Tween-20, and 1 mg/mL BSA [0.1% w/v]).
Purified biotinylated compounds were dissolved in an appropriate kinetic buffer and immobilized onto the streptavidin biosensor for 60 s. Sensors were then dipped into the kinetic buffer for 60 s, a concentration gradient of protein solution for 300 s and into the kinetic buffer for 300 s. Measurements were carried out at 20 °C.
Table S2: ASMS buffer summary.
B Biotinylated CAIX (1.5 μM) in A Biotinylated WDR5 (1.5 μM) in A […]
μM d-biotin 0.02% Tween-20, 400 μM biotin
D 10% FBS, 1x PBS 20m mM Tris, 500 mM NaCl, pH 8, 10% FBS, E 10 fmol/member library in buffer D 10 fmol/member library in buffer D F 1x PBS 20m mM Tris, 500 mM NaCl, pH 8
G 6M Guanidine HCl, 200 mM phosphate 6M Guanidine HCl, 200 mM phosphate buffer, pH 6.8, 10 mM TCEP HCl buffer, pH 6.8, 10 mM TCEP HCl
Sample preparation after AS: Following the affinity selection, samples were desalted using StageTips. […]

[1] = Parallel artificial membrane permeability assay (PAMPA); assay type: in vitro ADME
Experimental: The plate system consisted of a 96-well microwell plate (donor wells) and a 96-well insert containing a PVDF membrane coated with tri-layers of phospholipids (acceptor wells). Permeability was measured from the bottom plate (donor wells) to the top insert (acceptor wells). Cyclic peptide or reference compound solutions were prepared at a concentration of 100 μM in 1xPBS buffer (pH 7.4) containing 1% DMSO, and 300 μl of the resulting solutions was placed into the donor wells of the PAMPA plate. Acceptor wells were prepared by adding 200 μl of PBS buffer (pH 7.4) containing 1% DMSO. The insert was stacked onto the donor plate, and the system was covered with a lid to avoid evaporation. […] Additionally, 3:2 dilutions of the 100 μM cyclic peptide stocks were prepared in 1xPBS buffer (pH 7.4) containing 1% DMSO to yield a sample corresponding to the theoretical equilibrium between donor and acceptor wells. The samples were run on the UPLC–HRMS to measure the cyclic peptide concentration representing maximum permeability. […]
Parallel artificial membrane permeability assay (PAMPA):
Permeability measurements
The insert was then stacked onto the donor […]
concentration of permeated peptides. To establish a reference for maximum permeability, 3:2 […]
the theoretical equilibrium between the donor and acceptor chambers. These equilibrium samples […]
Permeability (%) = [PeptideAcceptor ] (4)
P = VD×VA × −ln (1 − [PeptideAcceptor] ) (5) […]

WDR5-MLL PPI = biological target: T2, WDR5-MLL PPI (Homo sapiens, UniProt P61964); experiment: BLI competition assay, displacement of immobilized MLL peptide 16 from WDR5; assay type: binding; conditions: for inhibition of WDR5-MLL interaction, in words: 100 nM inhibitor, MLL immobilized on BLI tips; for displacement of MLL peptide from WDR5: tested at 100 and 50 nM WDR5; for Binding (ratio to control): Figure S11, BLI competition, control = WDR5 without inhibitor
T2 construct: A truncated human WDR5 construct encoding amino acids 22–; SUMO (N); made in house; host or cells: E. coli BL21 (DE3) (WDR5); the peptide was made by chemical synthesis
Experimental: Purified biotinylated competitors were dissolved in the appropriate kinetic buffer and immobilized onto the streptavidin biosensors at 100 nM for 60 s. Sensors were then dipped into the kinetic buffer for 60 s, and the concentration gradient of macrocyclic hit in a constant concentration protein solution for 600 s. Measurements were carried out at 20 °C. […]
was immobilized for 60 sec. at 100 nM. […]
were reincubated and association was measured for 600 sec. […]
Biolayer interferometry (BLI): Biolayer interferometry (BLI) assays were performed in 96 well plates (GreinerBio -One, polypropylene, flat ‐bottom, chimney well) using an Octet R4 system (SATORIUS).
Wells were filled with 200 μL with kinetic buffer, compound solution or protein solution , purifi ed compounds . Proteins were dissolved in the appropriate kinetic buffer specific for each target (CAIX:
Tween -20, 1 mg/mL BSA [0.1% w/v]). […]
Measurements were carried out at 20 °C.
Competition assay: Purified biotinylated competitor were dissolved in appropriate kinetic buffer and immobilized onto the streptavidin biosensors at 100nM for 60s. Sensors were then dipped into kinetic buffer for 60 s and concentration gradient of macrocyclic hit in constant concentration protein solution for 600s. Measurements were carried out at 20 °C.

MV-4:11 cells = experiment: Cell viability, CellTiter-Glo, MV-4:11; assay type: cell-based; conditions: 72 h
Experimental: 5000 HL-60 (DSMZ ACC3), 3000 MV411 (DSMZ ACC554), and 7000 MOLM13 (DSMZ ACC554) cells were plated into an opaque-colored 96-well plate (Greiner Bio-One cat no 655083). […] About 100 μl CellTiter-Glo reagent was added to each well, and the plates were shaken for 5 min at 500 rpm. Luminescent signal was stabilized by incubating the plates for 10 min at RT. Luminescence was measured on the Victor X3 plate reader (Perkin Elmer).
were plated into an opaque colored 96 wells plate (Greiner Bio -one cat no 655083). Cells were plated
no G7570). 100 µl CellTiter-Glo reagent was added to each well and plates were shaken 5 minutes at 500 rpm. Luminescent signal was stabilized by incubating the plates 10 minutes at RT. Luminescence was measured on the Victor X3 plate reader (Perkin Elmer).

[2] = Serum stability assay in 25% human serum; conditions: pH 7.4
Experimental: The mixture was vortexed immediately after protein addition. […] After incubating on ice for 1 h, the samples were centrifuged at 10,000×g for 5 min. The supernatant was then injected into the UPLC–HRMS (20 μL) and the AUC of both peptide and IS calculated by analyzing the XIC curve for each exact mass value. For each run and timepoint, the peptide AUC was then normalized to the IS AUC.
vortexed immediately after protein addition. At different time points, a sample was retrieved and the
degradation reaction was quenched by the addition of 20% trichloroacetic acid (w/w) in 1x PBS
After incubating on ice for 1h , the samples were centrifuged at
10,000 rpms for 5 min. The supernatant was then injected into the UPLC -HRMS and the AUC of both
peptide and IS by analyzing the XIC curve for each exact mass value. For each run and timepoint, the peptide AUC was then normalized to the IS AUC . The relative stability values were then plotted using
Half -life times (t 1/2) were
calculated at the intersection of the curve with y=50%.

Kd (CAIX): 1 nM
SMILES: N=C(N)NCCC[C@@H]1NC(=O)[C@H](Cc2ccc(O)c(Cl)c2)NC(=O)[C@H](CCCCN)NC(=O)[C@@H](NC(=O)c2ccc(S(N)(=O)=O)cc2)CSSC[C@@H](C(=O)N[C@@H](CCCCN)C(=O)NCCCC[C@H](N)C(=O)NCCCC[C@H](N)C(=O)N[C@@H](CCCCNC(=O)CCCC[C@@H]2SC[C@@H]3NC(=O)N[C@@H]32)C(N)=O)NC1=O [Compound 7] ({Benzoyl(4-SO2NH2)}-CK[Tyr(3-Cl)]RCK[εLys][εLys]K(Biotin)-NH2; disulfide 1-5)

SMILES: COc1cc(CC(=O)N[C@H]2CSSC[C@@H](C(N)=O)NC(=O)[C@H](Cc3c[nH]c4ccccc34)NC(=O)[C@H](CCCNC(=N)N)NC(=O)[C@H]3CC[C@H](C3)NC2=O)cc(OC)c1OC [Compound 14] ({Phenylacetyl(3,4,5-triOMe)}-C[X1]RWC-NH2; disulfide 1-5; C-terminus assumed)
permeability (PAMPA) ([1]; PAMPA): < 1%
inhibition of WDR5-MLL interaction, in words (WDR5-MLL PPI; WDR5 50 nM): maintains full activity; also recorded: no association was detected; also recorded: comparable inhibitory potency
IC50 (WDR5-MLL PPI; 16 immobilized at 100 nM, WDR5 50 nM, lower detection limit 25 nM, read-out: IC50, inhibition of WDR5-MLL PPI (BLI competition)): < 25 nM

SMILES: CC(=O)N[C@H]1CSSC[C@@H](C(N)=O)NC(=O)[C@H](Cc2c[nH]c3ccccc23)NC(=O)[C@H](CCCNC(=N)N)NC(=O)[C@H]2CC[C@H](C2)NC1=O [Compound 15] (Ac-C[X1]RWC-NH2; disulfide 1-5; C-terminus assumed)
inhibition of WDR5-MLL interaction, in words (WDR5-MLL PPI; WDR5 50 nM): reduced (yet not abolished) activity; also recorded: maintained partial inhibitory activity

SMILES: COc1cc(CC(=O)N[C@H]2CSCc3ccccc3CSC[C@@H](C(N)=O)NC(=O)[C@H](Cc3c[nH]c4ccccc34)NC(=O)[C@H](CCCNC(=N)N)NC(=O)[C@H]3CC[C@H](C3)NC2=O)cc(OC)c1OC [Compound 17] ({Phenylacetyl(3,4,5-triOMe)}-C[X1]RWC-NH2; linker 1-5 via oXylylene; C-terminus assumed)
inhibition of WDR5-MLL interaction, in words (WDR5-MLL PPI; WDR5 50 nM): retained strong inhibition potency

SMILES: COc1cc(CC(=O)N[C@H]2CSCc3ccccc3CSCCNC(=O)[C@H](Cc3c[nH]c4ccccc34)NC(=O)[C@H](CCCNC(=N)N)NC(=O)[C@H]3CC[C@H](C3)NC2=O)cc(OC)c1OC [Compound 17Δ]
inhibition of MV-4:11 cell proliferation, in words (MV-4:11 cells): did not inhibit cancer cell proliferation
Permeability (%) ([1]; PAMPA): 17.17%
permeability (PAMPA) ([1]; PAMPA): 16%

SMILES: COc1cc(CC(=O)N[C@H]2CSCc3cccc(c3)CSCCNC(=O)[C@H](Cc3c[nH]c4ccccc34)NC(=O)[C@H](CCCNC(=N)N)NC(=O)[C@H]3CC[C@H](C3)NC2=O)cc(OC)c1OC [Compound 18Δ]
permeability (PAMPA) ([1]; PAMPA): 11%

SMILES: COc1cc(CC(=O)N[C@H]2CSCc3ccc(cc3)CSCCNC(=O)[C@H](Cc3c[nH]c4ccccc34)NC(=O)[C@H](CCCNC(=N)N)NC(=O)[C@H]3CC[C@H](C3)NC2=O)cc(OC)c1OC [Compound 19Δ]
permeability (PAMPA) ([1]; PAMPA): < 5%

SMILES: COc1cc(CC(=O)N[C@H]2CSCc3ccc(cc3)-c3ccc(cc3)CSCCNC(=O)[C@H](Cc3c[nH]c4ccccc34)NC(=O)[C@H](CCCNC(=N)N)NC(=O)[C@H]3CC[C@H](C3)NC2=O)cc(OC)c1OC [Compound 20Δ]
permeability (PAMPA) ([1]; PAMPA): < 5%

SMILES: N=C(N)NCCC[C@@H]1NC(=O)[C@H]2CC[C@H](C2)NC(=O)[C@@H](NC(=O)Cc2cc(F)c(F)cc2F)CSCc2ccccc2CSCCNC(=O)[C@H](Cc2c[nH]c3ccccc23)NC1=O [Compound 23]
permeability (PAMPA) ([1]; 100 µM, 18 h incubation, RT): 45%
displacement of MLL peptide from WDR5 (WDR5-MLL PPI): ≥ 50%

SMILES: N=C(N)NCCC[C@@H]1NC(=O)[C@H]2CC[C@H](C2)NC(=O)[C@@H](NC(=O)c2ccc(Cl)s2)CSCc2ccccc2CSCCNC(=O)[C@H](Cc2c[nH]c3ccccc23)NC1=O [Compound 25]
permeability (PAMPA) ([1]; 100 µM, 18 h incubation, RT): 51%
remaining at 24 h, 25 μM [2]: > 50%
displacement of MLL peptide from WDR5 (WDR5-MLL PPI): ≥ 50%

SMILES: N=C(N)NCCC[C@@H]1NC(=O)[C@H]2CC[C@H](C2)NC(=O)[C@@H](NC(=O)Cc2ccccc2Br)CSCc2ccccc2CSCCNC(=O)[C@H](Cc2c[nH]c3ccccc23)NC1=O [Compound 26]
displacement of MLL peptide from WDR5 (WDR5-MLL PPI): ≥ 50%

SMILES: CCCCCC(C)C(=O)N[C@H]1CSCc2ccccc2CSCCNC(=O)[C@H](Cc2c[nH]c3ccccc23)NC(=O)[C@H](CCCNC(=N)N)NC(=O)[C@H]2CC[C@H](C2)NC1=O (stereo partly shown) [Compound 27]
permeability (PAMPA) ([1]; 100 µM, 18 h incubation, RT): 72%
displacement of MLL peptide from WDR5 (WDR5-MLL PPI): ≥ 50%

SMILES: N=C(N)NCCC[C@@H]1NC(=O)[C@H]2CC[C@H](C2)NC(=O)[C@@H](NC(=O)CCc2ccc(Br)cc2)CSCc2ccccc2CSCCNC(=O)[C@H](Cc2c[nH]c3ccccc23)NC1=O [Compound 28]
displacement of MLL peptide from WDR5 (WDR5-MLL PPI): ≥ 50%

SMILES: COc1cc(CC(=O)N(C)[C@H]2CSCc3ccccc3CSCCNC(=O)[C@H](Cc3c[nH]c4ccccc34)NC(=O)[C@H](CCCNC(=N)N)NC(=O)[C@H]3CC[C@H](C3)NC2=O)cc(OC)c1OC [s5]
passive permeability (PAMPA), in words ([1]; PAMPA): reduced permeability
Binding (ratio to control) (WDR5-MLL PPI): 0.37

SMILES: COc1cc(CC(=O)N[C@H]2CSCc3ccccc3CSCCNC(=O)[C@H](Cc3c[nH]c4ccccc34)N(C)C(=O)[C@H](CCCNC(=N)N)NC(=O)[C@H]3CC[C@H](C3)NC2=O)cc(OC)c1OC [s7]
passive permeability (PAMPA), in words ([1]; PAMPA): reduced permeability
Binding (ratio to control) (WDR5-MLL PPI): 0.83
